Experimental data as given in patent US20230372333A1, “COMBINATION THERAPY FOR TREATING CANCER” (ASTRAZENECA AB, priority 2020, published 2023).
“Also recorded” adds a separate entry of the source.

Key:
[1] = system: HBCx-9; conditions: HBCx-9 TNBC PDX model, reference [2]; cited from earlier work
[2] = system: SUM149PT xenograft model; assay: Anti-tumour efficacy of AZD5305, carboplatin and combination in SUM149PT xenograft model (Example 3); format: in vivo, mice; conditions: AZD5305 0.01 mg/kg PO QD, 28 days
Protocol: SUM149PT cells (2×10^6) were implanted with 50% Matrigel into mammary fat pad (MFP) of female SCID mice (weight greater than 18 g). Tumours were measured (length×width) two times weekly by bilateral Vernier calliper measurements and tumour volume was calculated using elliptical formula (π/6×width×width×length). Animal bodyweight and tumour condition were monitored throughout the studies. Mice were randomised into treatment groups when mean tumour volume reached approximately 0.3 cm^3. Animals were treated from the day after the randomisation. Control animals were treated orally (PO) once daily (QD) with vehicle (deionised water acidified with HCl to pH 3.5-4) and intraperitoneally (IP) once weekly (QW) with PBS. AZD5305 was dosed PO QD at 0.1, 0.03 or 0.01 mg/kg. Carboplatin was dosed IP once weekly (QW) at 37.5 mg/kg. In the combination group, mice were dosed with carboplatin first, followed by AZD5305 administration within 10 minutes.
(§1) Tumour growth inhibition from start of treatment was assessed by comparison of the mean change in tumour volume of the control and treated groups and represented as percent tumour growth inhibition (TGI, when TV≥starting TV) or regression (reg, when TV<starting TV). Mean percent body weight change from start of treatment was also calculated for all the groups. Statistical significance was evaluated using a one-tailed t test. […]

[3] = system: HBCx-9 patient-derived explant model; assay: Anti-tumour efficacy of AZD5305, carboplatin and combination in HBCx-9 PDX model (Example 2); format: in vivo; conditions: carboplatin 50 mg/kg IP QW, 28 days, Nude female mice
Text: HBCx-9 is a patient-derived tumour explant (PDX) model established in XenTech without prior in vitro culture. Tumour fragments were transplanted subcutaneously (SC) onto donor mice. When tumour volume reached 700 to 1764 mm^3, donor mice were sacrificed, and tumours were aseptically excised and dissected. After removing necrotic areas, tumours were cut into fragments measuring approximately 20 mm^3 and transferred in culture medium before grafting SC into the recipient (experimental) Nude female mice. Tumours were measured (length×width) two times weekly by bilateral Vernier calliper measurements and tumour volume was calculated using elliptical formula (π/6×width×width×length). Animal bodyweight and tumour condition were monitored throughout the study. Mice were randomised into treatment groups when mean tumour volume reached approximately 100 mm^3. Animals were treated from the day after the randomisation. […]
as §1, with “TV≤starting” for “TV≥starting”

O=C(c1cc(Cc2n[nH]c(=O)c3ccccc23)ccc1F)N1CCN(C(=O)C2CC2)CC1 [olaparib]
sensitivity of HBCx-9 to monotherapy [1]: moderate sensitivity

CCc1cc2ncc(CN3CCN(c4ccc(C(=O)NC)nc4)CC3)cc2[nH]c1=O [AZD5305, 5-[4-[(7-ethyl-6-oxo-5H-1,5-naphthyridin-3-yl)methyl]piperazin-1-yl]-N-methyl-pyridine-2-carboxamide]
Tumour Growth Inhibition/Regression (end of treatment) [2]: did not inhibit tumour growth; also recorded: No TGI or regression

N.N.O=C([O-])C1(C(=O)[O-])CCC1.[Pt+2] [Carboplatin, carboplatin]
Tumour Growth Inhibition/Regression (end of treatment): TGI [3]: 88% TGI *** (p ≤ 0.001)
Tumour Growth Inhibition/Regression (end of treatment): TGI ([3]; listed as carboplatin): 88%
